We go through 36 compounds from ChEMBL document CHEMBL6078629, “Targeting Protein Kinase, Membrane-Associated Tyrosine/Threonine 1 (PKMYT1) for Precision Cancer Therapy: From Discovery to Clinical Trial” (J Med Chem, 2024).

Series [1] deals with T1, Membrane-associated tyrosine- and threonine-specific cdc2-inhibitory kinase (Homo sapiens, UniProt Q99640).
T1 sequence (Q99640 whole entry): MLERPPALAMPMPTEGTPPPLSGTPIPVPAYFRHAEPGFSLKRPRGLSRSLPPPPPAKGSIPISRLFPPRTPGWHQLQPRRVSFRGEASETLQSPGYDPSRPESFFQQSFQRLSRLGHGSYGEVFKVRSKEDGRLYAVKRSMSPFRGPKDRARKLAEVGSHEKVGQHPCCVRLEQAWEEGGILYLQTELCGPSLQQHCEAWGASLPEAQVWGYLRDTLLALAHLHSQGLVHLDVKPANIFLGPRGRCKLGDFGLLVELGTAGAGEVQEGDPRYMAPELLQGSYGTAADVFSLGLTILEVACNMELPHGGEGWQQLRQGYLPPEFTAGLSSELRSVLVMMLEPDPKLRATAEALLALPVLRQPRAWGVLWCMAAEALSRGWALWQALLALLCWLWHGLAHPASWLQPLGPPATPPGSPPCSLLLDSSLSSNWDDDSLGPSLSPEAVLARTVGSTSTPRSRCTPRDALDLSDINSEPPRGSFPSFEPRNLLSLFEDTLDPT
Kind of series: Inhibition of PKMYT1 (unknown origin) by TR-FRET analysis. A general note: Time-resolved FRET reads energy transfer from a long-lived donor to a nearby acceptor.

Series [2] has as its target T1, Membrane-associated tyrosine- and threonine-specific cdc2-inhibitory kinase. Kind of series: Inhibition of PKMYT1 (unknown origin).
Another series relates to MIA PaCa-2. Kind of series: Antiproliferative activity against human MIA PaCa-2 cells assessed as reduction in cell viability incubated for 48 hrs by MTT assay. To be noted: MIA PaCa-2, 48 h. Type of series: functional, cell-based.
A short description of series [3]: Half life in […] at 2 mg/kg, iv. Type of series: ADME, organism-based. To be noted: in vivo.
A short description of series [4]: Clearance in CD-1 mouse at 2 mg/kg, iv by LC-MS/MS analysis. The format is ADME, organism-based. To be noted: in vivo.
A further series relates to HCC1569. Kind of series: Antiproliferative activity against human HCC1569 cells assessed as reduction in cell viability incubated for 48 hrs by MTT assay. The format is functional, cell-based. To be noted: HCC1569, 48 h. A general note: Tetrazolium assays rely on reduction of a dye to a coloured formazan, in cell work by metabolically active cells.
Series [5] has as its target T1, Membrane-associated tyrosine- and threonine-specific cdc2-inhibitory kinase. The series can be described thus: Binding affinity to PKMYT1 (unknown origin) assessed as dissociation constant.
In series [6] the target is T2, Wee1-like protein kinase (Homo sapiens, UniProt P30291). The series can be described thus: Binding affinity to WEE1 (unknown origin) assessed as dissociation constant.
Series [7] concerns the target T2, Wee1-like protein kinase. Kind of series: Inhibition of WEE1 (unknown origin).
In series [8] the target is T1, Membrane-associated tyrosine- and threonine-specific cdc2-inhibitory kinase. Kind of series: Inhibition of PKMYT1 (unknown origin) extracted from insect cells by TR-FRET analysis. Type of series: cell-free, Insect cell.

Where only a bound is given, the exact number is not on record here.

T2 sequence (P30291 whole entry): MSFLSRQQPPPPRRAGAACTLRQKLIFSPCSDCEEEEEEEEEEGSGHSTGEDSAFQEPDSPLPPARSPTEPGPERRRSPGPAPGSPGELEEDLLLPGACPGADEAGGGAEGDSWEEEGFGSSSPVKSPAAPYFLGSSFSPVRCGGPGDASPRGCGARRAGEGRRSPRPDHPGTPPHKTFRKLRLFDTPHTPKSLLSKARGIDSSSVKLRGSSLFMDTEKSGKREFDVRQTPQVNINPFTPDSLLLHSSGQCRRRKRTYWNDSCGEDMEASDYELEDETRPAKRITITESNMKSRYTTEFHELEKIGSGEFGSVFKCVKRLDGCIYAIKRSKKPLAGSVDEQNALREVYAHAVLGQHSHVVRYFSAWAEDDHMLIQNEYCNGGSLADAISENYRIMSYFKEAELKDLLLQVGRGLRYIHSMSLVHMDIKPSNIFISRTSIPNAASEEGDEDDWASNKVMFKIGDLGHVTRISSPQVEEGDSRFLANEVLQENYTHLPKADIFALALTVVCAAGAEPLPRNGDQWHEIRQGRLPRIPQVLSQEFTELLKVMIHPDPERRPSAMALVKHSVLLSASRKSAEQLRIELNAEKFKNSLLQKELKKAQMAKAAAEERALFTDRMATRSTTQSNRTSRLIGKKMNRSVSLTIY

What is called IC50 is the midpoint of a concentration-inhibition curve. In [1], `Cc1cc(Nc2ncc3cc(-c4c(Cl)cccc4Cl)c(=O)n(C)c3n2)ccc1F` registered an IC50 of 7.2 nM.

With `Cc1nc2c3c(c(N)n(-c4c(C)ccc(O)c4C)c3n1)C(=O)NCC2`, the IC50 in series [1] is at most 10 nM.

In series [2], `Cc1ccc(O)c(C)c1-c1c(N)c(C(N)=O)nc2cccnc12` gave an IC50 of under 50 nM.

The term half-life denotes the time needed for the level to fall by half in the phase considered. High values mean slow decline, low ones rapid decline. By clearance is commonly meant the rate of elimination divided by the concentration. A higher clearance goes with efficient removal. `Cc1cc2c(C(N)=O)c(N)n(-c3c(C)c(O)cc(F)c3C)c2nc1C`: the results for the IC50 (in series [2]; with MIA PaCa-2) were at most 200 nM and 4320 nM, respectively. In addition, the half-life in series [3] is 0.56 h. Besides, the clearance in series [4] stood at 94.4 mL/min/kg.

Consider `Cc1ccc(O)c(C)c1-n1c(N)c2c3c(ncnc31)-c1ccccc1NC2=O`, for which, in the series on HCC1569, the IC50 came to 42 nM.

Consider `COc1ccnc2c(-c3c(C)ccc(O)c3C)c(N)c(C(N)=O)cc12`, for which the IC50 in [2] is under 50 nM.

By Kd is commonly meant a measure of binding affinity in units of concentration. Consider `Cc1ccc(O)c(C)c1-c1cc2cnc(Nc3ccccn3)nc2n(C)c1=O`, for which the values for the Kd (in series [5]; on Wee1-like protein kinase [6]) were at most 10 nM and over 500 nM, respectively.

Take `CN(C)C(=O)NCc1cc(Nc2ncc3cc(-c4c(Cl)cccc4Cl)c(=O)n(C)c3n2)nnc1OCCN1CCS(=O)(=O)CC1`: the values for the Kd (in [5]; at Wee1-like protein kinase [6]) were at most 10 nM and over 500 nM, respectively.

As for `Cc1ccc(O)c(C)c1-n1nc(-c2nccs2)c(C(N)=O)c1N`, the IC50 was at most 10 nM in [2] and 500 nM on Wee1-like protein kinase [7].

Take `Cc1ccc(O)c(C)c1-n1c2ncc(N3CCOCC3)nc2c2c(N)ncnc21`: the results for the IC50 (in [2]; in the series on HCC1569) were under 100 nM and under 5 nM, respectively.

As for `COc1ccc(Nc2ncc3cc(-c4c(C)ccc(O)c4C)c(=O)n(C)c3n2)nc1`, the Kd was at most 10 nM in [5] and over 500 nM on Wee1-like protein kinase [6].

Consider `Cc1ccc(O)c(C)c1-c1cnc2[nH]c(-c3ccc(N4CCN(C)CC4)nc3C)nc2c1`, for which the half-maximal inhibitory concentration (IC50) in series [2] stood at 500 nM.

For the compound `Cc1c(O)cccc1-c1c(N)c(C(N)=O)nc2cccnc12`, the IC50 in series [2] is under 50 nM.

As to `Cc1ccc(O)c(C)c1-c1c(N)c(C(N)=O)nc2nccnc12`, in series [2], the IC50 was under 50 nM.

For the compound `C[C@@H](O)CC[C@H](C)Oc1ccc(Nc2ncc3cc(-c4c(Cl)cccc4Cl)c(=O)n(C)c3n2)nn1`, the Kd in series [5] was at most 10 nM; at Wee1-like protein kinase [6], over 500 nM.

Regarding `Cc1nc2c3c(c(N)n(-c4c(C)ccc(O)c4C)c3n1)C(=O)Nc1ccccc1-2`, in the series on HCC1569, the half-inhibitory concentration (IC50) was 22 nM.

Compound `CSc1ncc2c(C(N)=O)c(N)n(-c3c(C)ccc(O)c3C)c2n1` gave an IC50 in [2] of under 100 nM.

`Cc1ccc(-c2cc3c(Cl)c(-c4c(C)ccc(O)c4C)cnc3[nH]2)cn1` registered an IC50 in series [2] of at most 10 nM.

In the case of `Cc1ncc(-c2[nH]c3ncc(-c4c(C)ccc(O)c4C)nc3c2Cl)cn1`, the IC50 in [2] was at most 10 nM.

As to `Cc1c(O)cccc1-c1c(N)c(C(N)=O)nc2cccc(C#N)c12`, the IC50 in series [2] was under 50 nM.

In the case of `CCOc1cc2ncc(C#N)c(Nc3ccc(F)c(Cl)c3)c2cc1NC(=O)/C=C\CN(C)C`, half-maximal inhibition in [8] (IC50) required 2900 nM.

On to `Cc1ccc(O)c(C)c1C1C(N)=C(C(N)=O)C2C=C(C(C)C)C=NN21` (stereo not given), for which, in [2], the IC50 is under 10 nM.

On to `Cc1ccc(O)c(C)c1-n1c(N)c2c3c(ncnc31)C=C(c1cnn(C)c1)NC2=O`, for which the IC50 in the series on HCC1569 was determined as 8.6 nM.

Turning to `Cc1ccc(O)c(C)c1-n1c(N)c(C(N)=O)c2cc(NC(N)=O)cnc21`, the IC50 in series [2] is under 20 nM.

Turning to `Cc1c(O)cccc1-c1c(N)c(C(N)=O)cc2nccc(C#N)c12`, the 50% inhibitory concentration (IC50) in series [2] was under 50 nM.

Turning to `CC1=NN2C(C=C1C1CC1)C(C(N)=O)=C(N)C2c1c(C)ccc(O)c1C` (stereo not given), the IC50 in series [2] is under 10 nM.

On to `Cc1cc2c3c(N)ncnc3n(-c3c(C)ccc(O)c3C)c2nc1C`, for which the IC50 in [2] was under 100 nM; in the series on HCC1569, under 5 nM.

For the compound `CCn1ccc(Oc2ccc(Nc3ncc4cc(-c5c(Cl)cccc5Cl)c(=O)n(C)c4n3)nc2)n1`, the Kd in series [5] was at most 10 nM; at Wee1-like protein kinase [6], over 500 nM.

In [2], `COc1ccnc2c(-c3cccc(O)c3C)c(N)c(C(N)=O)cc12` came in with an IC50 of under 50 nM.

Consider `Cc1ccc(O)c(C)c1-n1c(N)c(C(N)=O)c2c(=O)n(CF)ccc21`, for which half-maximal inhibition in series [1] (IC50) was put at 1.5 nM.

Consider `Cc1ccc(O)c(C)c1-n1c(N)c2c3c(c(C)ncc31)CCNC2=O`, for which the IC50 in series [1] was 10 nM; at Wee1-like protein kinase [7], over 10000 nM.

`CC1=CC2C(C(N)=O)=C(N)C(c3c(C)ccc(O)c3C)N2N=C1` (stereo not given) yielded an IC50 in series [2] of under 10 nM.

Turning to `Cc1ccc(O)c(C)c1-n1c(N)c2c3c(c(C)cnc31)CCNC2=O`, the IC50 in [1] was at most 10 nM.

On to `CC1=CC2C(C(N)=O)=C(N)C(c3c(C)ccc(O)c3C)N2N=C1C` (stereo not given), for which the IC50 in series [2] is under 10 nM.

With `Cc1cc2c(C(N)=O)c(N)n(-c3c(C)ccc(O)c3C)c2nc1C` [LUNRESERTIB], in the series on MIA PaCa-2, the IC50 worked out at 9220 nM. In series [3], this compound gave a half-life of 3.32 h. Further, the clearance in [4] came out at 46.5 mL/min/kg.

In turn, `COc1cc2ncnc(Nc3cccc(Cl)c3)c2cc1OC` [TYRPHOSTIN AG-1478] gave an IC50 in series [8] of 7200 nM.
